According to patent EP0523675A1, “Inhibitory agent against HIV superinfection” (priority 1991, dated 1993):
Where no end group is shown, it is not given here.

Test system: HTLV-IIIB virus (superinfection of L-2 cells)
Experiment: Inhibition of superinfection of L-2 cells with HTLV-IIIB, fluorescent antibody technique using V-17 (anti-p18) antibody
Format: cell-based, HIV (Human Immunodeficiency Virus)
Settings: peptide final concentration 1 mg/ml, mixed with HTLV-IIIB virus liquid M.O.I. = 3.2 for 30 min at room temperature, then inoculated into L-2 cells; checked every 4 days; Fig. 2

Sequence: TKGPSKLNDRADSRRS [CD4 peptide (45-60)]
- inhibitory effect on superinfection: not at all observed
